Data on 13 compounds can be found in ChEMBL document CHEMBL3046051, “A novel approach to the synthesis of 1,2,3-triazoles and their SAR studies” (2010).

What all share (format): functional
Experiment [1] deals with Aspergillus flavus. Nature of the experiment: Antifungal activity against Aspergillus flavus 871 by paper disk method.
Experiment [2] deals with Wickerhamiella azyma. Nature of the experiment: Antifungal activity against Candida azyma 1452 by paper disk method.
Experiment [3] relates to Candida albicans. In words: Antifungal activity against Candida albicans 227 by paper disk method.
In experiment [4] the test system is Aspergillus niger. In words: Antifungal activity against Aspergillus niger 281 by paper disk method.
For experiment [5], the system named is Aspergillus niger. Nature of the experiment: Antifungal activity against Aspergillus niger 281 by paper disk method relative to voriconazole.
For experiment [6], the system named is Aspergillus flavus. Nature of the experiment: Antifungal activity against Aspergillus flavus 871 by paper disk method relative to voriconazole.
Experiment [7] concerns Candida albicans. In words: Antifungal activity against Candida albicans 227 by paper disk method relative to voriconazole.
Experiment [8] deals with Wickerhamiella azyma. Nature of the experiment: Antifungal activity against Candida azyma 1452 by paper disk method relative to voriconazole.

For `C[C@@H](c1ncncc1F)[C@](O)(Cn1cncn1)c1ccc(F)cc1F` [VORICONAZOLE], the “inhibition zone (IZ)” value in experiment [1] was found to be 15 mm; in experiment [2], 15 mm; in experiment [3], 16 mm; in experiment [4], 18 mm.
As to `C=CN1C(C)=C(C(C)=O)NN1c1ccc(OC)cc1`, the “inhibition (INH)” value in experiment [5] was -44.44%; in experiment [6] it was -20%; in experiment [7], -37.5%; in experiment [8], -33.33%.
Regarding `C=CN1C(C)=C(C(C)=O)NN1c1ccccc1`, the “inhibition (INH)” value in experiment [5] is -33.33%; in experiment [6], -13.33%; in experiment [7], -31.25%; in experiment [8] it was -26.67%.
For `C=CN1C(C)=C(C(C)=O)NN1c1cccc(Cl)c1`, the “inhibition (INH)” value in experiment [5] was -100%; in experiment [6] it was -73.33%; in experiment [7], -93.75%; in experiment [8], -86.67%.
`C=CN1C(C)=C(C(C)=O)NN1c1ccc(C)cc1`: the “inhibition (INH)” value in experiment [5] is reported as -66.67%; in experiment [6], -40%; in experiment [7] it was -56.25%; in experiment [8], -53.33%.
For the compound `C=CN1C(C)=C(C(C)=O)NN1c1ccc(O)cc1`, the “inhibition (INH)” value in experiment [5] came to 16.67%; in experiment [6], 46.67%; in experiment [7], 25%; in experiment [8], 33.33%.
Regarding `C=CN1C(C)=C(C(C)=O)NN1c1cccc(OC)c1`, the “inhibition (INH)” value is reported as -50% in experiment [5], -26.67% in experiment [6], -43.75% in experiment [7] and -40% in experiment [8].
`C=CN1C(C)=C(C(C)=O)NN1c1cccc(O)c1`: the “inhibition (INH)” value came to 11.11% in experiment [5], 40% in experiment [6], 18.75% in experiment [7] and 26.67% in experiment [8].
With `C=CN1C(C)=C(C(C)=O)NN1c1ccc([N+](=O)[O-])cc1`, the “inhibition (INH)” value in experiment [5] was -27.78%; in experiment [6], 20%; in experiment [7], 0%; in experiment [8], 6.67%.
Taken in the same sequence, the figures for `C=CN1C(C)=C(C(C)=O)NN1c1ccc(Cl)cc1` were -94.44%, -66.67%, -87.5% and -80%.
With `C=CN1C(C)=C(C(C)=O)NN1c1cccc([N+](=O)[O-])c1`, the “inhibition (INH)” value is on record as -33.33% in experiment [5], 13.33% in experiment [6], -6.25% in experiment [7] and 0% in experiment [8].
`C=CN1C(C)=C(C(C)=O)NN1c1ccc(C(=O)O)cc1`: the “inhibition (INH)” value in experiment [5] is -11.11%; in experiment [6], 33.33%; in experiment [7] it was 6.25%; in experiment [8], 6.67%.
Regarding `C=CN1C(C)=C(C(C)=O)NN1c1cccc(C)c1`, the “inhibition (INH)” value in experiment [5] is given as -72.22%; in experiment [6], -46.67%; in experiment [7] it was -62.5%; in experiment [8] it was -60%.
